Patent US20190105367A1, “ANTIMICROBIAL 4-OXOQUINOLIZINES” (Emergent Product Development Gaithersburg Inc., priority 2011, published 2019)
Read-outs that look alike come from different tables or passages of the source.

Columns and labels:
A. baumannii J2 [1] = experiment: Preliminary MBC without and with sub-inhibitory polymyxin B (Example 4); format: cell-based, Acinetobacter baumannii; conditions: Acinetobacter baumannii, J2, read-out: MBC +[…] PB, A. baumannii J2; +[…] polymyxin B; preliminary MBC; 1st experiment
A. baumannii A489 [2] = experiment: as above; format: cell-based, Acinetobacter baumannii; conditions: Acinetobacter baumannii, preliminary MBC
A. baumannii NCTC 13301 [3] = experiment: MIC without and with sub-inhibitory polymyxin B (Example 4); format: cell-based, Acinetobacter baumannii; conditions: A. baumannii NCTC 13301; +[…] PB; 2nd experiment
A. baumannii J2 [4] = experiment: as above; format: cell-based, Acinetobacter baumannii; conditions: for MIC without PB/MIC + PB: A. baumannii J2
A. baumannii A489 [5] = experiment: as above; format: cell-based, Acinetobacter baumannii; conditions: for MIC without PB/MIC + PB: A. baumannii A489; for MIC: Acinetobacter baumannii
[6] = system: Acinetobacter sp. (H064200250); experiment: Preliminary MBC without and with sub-inhibitory polymyxin B (Example 4); format: cell-based; conditions: Acinetobacter
How it was run: (§1)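 Bactericidal endpoint scored visually on plates incubated at 37° C (18-20 hours): the lowest concentration where growth fell about 90% versus the positive control, generally leaving one colony or none.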

A. baumannii A473 [7] = experiment: as above; format: cell-based, Acinetobacter baumannii; conditions: Acinetobacter baumannii, A473, A. baumannii A473, +0.06 μg/ml PB, 2nd experiment, read-out: MBC
How it was run: as §1

A. baumannii A390 [8] = experiment: as above; format: cell-based, Acinetobacter baumannii; conditions: Acinetobacter baumannii, A390, A. baumannii A390, +0.06 μg/ml PB, 2nd experiment, read-out: MBC
How it was run: as §1

A. baumannii NCTC 13301 [9] = experiment: as above; format: cell-based, Acinetobacter baumannii; conditions: Acinetobacter baumannii
How it was run: as §1

A. baumannii A14 [10] = experiment: as above; format: cell-based, Acinetobacter baumannii; conditions: Acinetobacter baumannii, 2nd experiment, read-out: MBC
How it was run: as §1

A. baumannii A14 [11] = experiment: as above; format: cell-based, Acinetobacter baumannii; conditions: A. baumannii A14, preliminary MBC, 1st experiment
A. baumannii A329 [12] = experiment: as above; format: cell-based, Acinetobacter baumannii; conditions: Acinetobacter baumannii, A329, A. baumannii A329, +0.06 μg/ml PB, 2nd experiment, read-out: MBC
A. baumannii A390 [13] = experiment: MIC without and with sub-inhibitory polymyxin B (Example 4); format: cell-based, Acinetobacter baumannii; conditions: +0.06 μg/ml PB, 2nd experiment
A. baumannii A472 = experiment: Preliminary MBC without and with sub-inhibitory polymyxin B (Example 4); format: cell-based, Acinetobacter baumannii; conditions: Acinetobacter baumannii, A472, read-out: MBC +[…] PB, A. baumannii A472; +[…] polymyxin B; preliminary MBC; 1st experiment
A. baumannii A329 [14] = experiment: MIC without and with sub-inhibitory polymyxin B (Example 4); format: cell-based, Acinetobacter baumannii; conditions: +0.06 μg/ml PB, 2nd experiment
A. baumannii ATCC 19606 [15] = experiment: Preliminary MBC without and with sub-inhibitory polymyxin B (Example 4); format: cell-based, Acinetobacter baumannii; conditions: Acinetobacter baumannii
A. baumannii ATCC 19606 [16] = experiment: MIC without and with sub-inhibitory polymyxin B (Example 4); format: cell-based, Acinetobacter baumannii; conditions: for MIC without PB/MIC + PB: A. baumannii ATCC 19606; for MIC: Acinetobacter baumannii
A. baumannii A473 [17] = experiment: as above; format: cell-based, Acinetobacter baumannii; conditions: +0.06 μg/ml PB, 2nd experiment
A. baumannii A14 [18] = experiment: as above; format: cell-based, Acinetobacter baumannii; conditions: 1st experiment
[19] = system: strains of A. baumannii and one strain of Acinetobacter sp.; experiment: MIC with sub-inhibitory concentrations (0.25x MIC) of polymyxin B, panel of Acinetobacter strains (Example 4); format: cell-based
A. baumannii A14 [20] = experiment: MIC without and with sub-inhibitory polymyxin B (Example 4); format: cell-based, Acinetobacter baumannii; conditions: 2nd experiment; for MIC: Acinetobacter baumannii, A14, A. baumannii A14, read-out: MIC
A. baumannii NCTC 13301 [21] = experiment: as above; format: cell-based, Acinetobacter baumannii
A. baumannii A387 = experiment: as above; format: cell-based, Acinetobacter baumannii; conditions: for MIC without PB/MIC + PB: A. baumannii A387; for MIC: Acinetobacter baumannii
[22] = system: Acinetobacter sp. (H064200250); experiment: as above; format: cell-based
[23] = ratio, PB 0.06 μg/ml, 1st experiment

Cc1c(-c2ccc(N)c(F)c2)ccn2c(=O)c(C(=O)O)cc(C3CC3)c12 [Compound 1, 8-(3-fluoro-4-amino-phenyl)-1-cyclopropyl-9-methyl-4-oxo-quinolizine-3-carboxylic acid]
0.06 µg/mL: MBC (A. baumannii NCTC 13301 [9]; NCTC13301, read-out: MBC +[…] PB) | MBC (A. baumannii A14 [10]; A14, A. baumannii A14, +0.06 μg/ml PB) | MBC +0.06 μg/ml PB (A. baumannii A14 [11]; +0.06 μg/ml polymyxin B) | MIC +0.06 μg/ml PB (A. baumannii A14 [18]; +0.06 μg/ml polymyxin B) | MIC (A. baumannii A14 [20]; +0.06 μg/ml PB)
≥1024: MIC without PB/MIC + PB (A. baumannii NCTC 13301 [3]) | MIC without PB/MIC + PB (A. baumannii NCTC 13301 [21]; A. baumannii NCTC 13301, ratio, PB […], 1st experiment)
≥32: MIC without PB/MIC + PB (A. baumannii A387; [23])
≥128: MIC without PB/MIC + PB (A. baumannii A489 [5]; ratio, PB […], 1st experiment) | MIC without PB/MIC + PB (A. baumannii A387; +0.06 μg/ml PB, 2nd experiment)
32 µg/mL: MBC (A. baumannii A14 [10]; A14, A. baumannii A14, without PB) | MBC (A. baumannii A14 [11]; Acinetobacter baumannii, without polymyxin B, read-out: MBC without PB) | MIC (A. baumannii A14 [18]; Acinetobacter baumannii, 24 h, without polymyxin B, read-out: MIC without PB) | MIC (A. baumannii A14 [20]; without PB)
≤ 0.03 µg/mL: MBC (A. baumannii J2 [1]) | MBC (A. baumannii A489 [2]; A489, A. baumannii A489, +[…] PB, 2nd experiment, read-out: MBC) | MBC (A. baumannii A489 [2]; A489, read-out: MBC +[…] PB, A. baumannii A489, +[…] polymyxin B, 1st experiment) | MIC (A. baumannii J2 [4]; Acinetobacter baumannii, J2, read-out: MIC +[…] PB, A. baumannii J2, +[…] polymyxin B, 1st experiment) | MIC (A. baumannii A489 [5]; A489, A. baumannii A489, +[…] PB, 2nd experiment, read-out: MIC) | MIC (A. baumannii A489 [5]; A489, read-out: MIC +[…] PB, A. baumannii A489, +[…] polymyxin B, 1st experiment) | MBC [6] | MBC (A. baumannii A390 [8]) | MBC (A. baumannii NCTC 13301 [9]; NCTC13301) | MIC (A. baumannii A390 [13]; Acinetobacter baumannii, A390, A. baumannii A390, read-out: MIC) | MBC (A. baumannii A472) | MBC (A. baumannii ATCC 19606 [15]; ATCC19606, A. baumannii ATCC 19606, +0.06 μg/ml PB, 2nd experiment, read-out: MBC) | MBC (A. baumannii ATCC 19606 [15]; ATCC19606, read-out: MBC +0.06 μg/ml PB, A. baumannii ATCC 19606, +0.06 μg/ml polymyxin B, 1st experiment) | MIC (A. baumannii ATCC 19606 [16]; ATCC19606, A. baumannii ATCC 19606, +0.06 μg/ml PB, 2nd experiment, read-out: MIC) | MIC (A. baumannii ATCC 19606 [16]; ATCC19606, read-out: MIC +0.06 μg/ml PB, A. baumannii ATCC 19606, +0.06 μg/ml polymyxin B, 1st experiment) | MIC (A. baumannii NCTC 13301 [21]; Acinetobacter baumannii, NCTC13301, read-out: MIC +[…] PB) | MIC (A. baumannii A387; A387, A. baumannii A387, +0.06 μg/ml PB, 2nd experiment, read-out: MIC) | MIC (A. baumannii A387; A387, read-out: MIC +0.06 μg/ml PB, A. baumannii A387, +0.06 μg/ml polymyxin B, 1st experiment) | MIC ([22]; Acinetobacter, read-out: MIC +[…] PB, Acinetobacter spp. H064200250, +[…] polymyxin B, 1st experiment)
≥512: MIC without PB/MIC + PB (A. baumannii J2 [4]; +[…] PB, 2nd experiment) | MIC without PB/MIC + PB (A. baumannii A489 [5]; +[…] PB, 2nd experiment) | MIC without PB/MIC + PB (A. baumannii A390 [13]; A. baumannii A390) | MIC without PB/MIC + PB ([22]; Acinetobacter spp. H064200250 (OXA51), +[…] PB, 2nd experiment)
1 µg/mL: MBC (A. baumannii A473 [7]) | MIC (A. baumannii A473 [17]; Acinetobacter baumannii, A473, A. baumannii A473, read-out: MIC)
≥8: MIC without PB/MIC + PB (A. baumannii ATCC 19606 [16]; +0.06 μg/ml PB, 2nd experiment) | MIC without PB/MIC + PB (A. baumannii ATCC 19606 [16]; [23])
≤0.03 to 0.06 µg/mL: MIC range with PB (0.25x MIC) Oct. 1, 2008 n = 8 ([19]; 1st experiment, […] polymyxin B, ATCC 19606, A329, A390 and A473 not taken)
2 µg/mL: MBC (A. baumannii A329 [12]) | MIC (A. baumannii A329 [14]; Acinetobacter baumannii, A329, A. baumannii A329, read-out: MIC)
512: MIC without PB/MIC + PB (A. baumannii A14 [18]; ratio, PB 0.06 μg/ml) | MIC without PB/MIC + PB (A. baumannii A14 [20]; A. baumannii A14, +0.06 μg/ml PB)
≤0.03 to 2 µg/mL: MIC range with PB (0.25x MIC) Oct. 14, 2008 n = 11 ([19]; 2nd experiment, 0.06 μg/ml polymyxin B, all strains except the ATCC strain)
≥256: MIC without PB/MIC + PB (A. baumannii J2 [4]; ratio, PB […], 1st experiment) | MIC without PB/MIC + PB ([22]; Acinetobacter spp. H064200250, ratio, PB […], 1st experiment)
8: MIC without PB/MIC + PB (A. baumannii A329 [14]; A. baumannii A329) | MIC without PB/MIC + PB (A. baumannii A473 [17]; A. baumannii A473)
0.25 µg/mL: MBC ([6]; read-out: MBC +[…] PB, Acinetobacter spp. H064200250, +[…] polymyxin B, preliminary MBC, 1st experiment)
